Structures are written as SMILES. pKd: −log10 of the molar value.

Here are results for 6 compounds from publication PMC5391171 (Journal of molecular and cellular cardiology, 2016).

The target of assay [1] is cChimera (cNTnC-cTnI [136–163] chimera) (Homo sapiens, UniProt P19429+P63316, C35S/C84S). The assay can be described thus: NMR titration. The format is binding.
Assay [2] deals with cardiac isoform of troponin. The conditions noted are these: cited from earlier work.
Where [3] appears, read: titration monitored by chemical shift changes.

On to `Cc1ccc(S(=O)(=O)Nc2ccc(Nc3ccccc3)cc2)cc1` [NSC41053], for which the “Binding to cChimera” value in assay [1] (setting [3]) is “NSC41053 Weak binding (very small chemical shift changes that could not be fit to a saturating curve, indicating a KD > 2 mM)”.
By pKd is commonly meant the negative decadic logarithm of the Kd, by convention in mol/L. As to `Clc1cccc(Nc2ccccc2)c1` [3-chlorodiphenylamine], the negative-log Kd (pKd) in assay [1] is 5.00.
For `C#Cc1cnc2nc(O)n(C(CC)CC)c2n1` [tirasemtiv], the “activity towards the cardiac isoform of troponin” value in assay [2] is reported as “no activity”.
Turning to `O=C(O)c1ccccc1Nc1ccccc1` [NSC215211], in assay [1], the negative-log Kd (pKd) is 3.10.
In the case of `c1ccc(CNCc2ccccc2)cc1` [dibenzylamine], in assay [1] (addition of a methylene carbon relative to benzylaniline), the “Binding to cChimera” value is given as “completely abolished binding”.
As for `O=[N+]([O-])c1cccc(Cc2ccc(Cc3cccc([N+](=O)[O-])c3)cc2)c1` [NSC89784], the “Binding to cChimera” value in assay [1] (setting [3]) is reported as “NSC89784 Weak binding (very small chemical shift changes that could not be fit to a saturating curve, indicating a KD > 2 mM)”.
